Measured values reported in patent US8088802B2, “N-phenylarylsulfonamide compound, pharmaceutical composition comprising the compound as active ingredient, synthetic intermediate for the compound and process for its preparation” (Ono Pharmaceutical Co., Ltd., priority 2001, dated 2012).
Where a name gives a salt, the structure may show the parent alone.

Key:
[1] = molecular target: T1, mouse EP1 (Mus musculus, UniProt P35375); assay: Receptor antagonism using cells expressing EP1 in the presence of BSA (intracellular calcium); format: cell-based; design: expressed in transfected cells; conditions: inhibition of PGE2 (100 nM)-induced increase of intracellular calcium; assay buffer with 1% (w/v) BSA
T1 sequence (P35375 1-405): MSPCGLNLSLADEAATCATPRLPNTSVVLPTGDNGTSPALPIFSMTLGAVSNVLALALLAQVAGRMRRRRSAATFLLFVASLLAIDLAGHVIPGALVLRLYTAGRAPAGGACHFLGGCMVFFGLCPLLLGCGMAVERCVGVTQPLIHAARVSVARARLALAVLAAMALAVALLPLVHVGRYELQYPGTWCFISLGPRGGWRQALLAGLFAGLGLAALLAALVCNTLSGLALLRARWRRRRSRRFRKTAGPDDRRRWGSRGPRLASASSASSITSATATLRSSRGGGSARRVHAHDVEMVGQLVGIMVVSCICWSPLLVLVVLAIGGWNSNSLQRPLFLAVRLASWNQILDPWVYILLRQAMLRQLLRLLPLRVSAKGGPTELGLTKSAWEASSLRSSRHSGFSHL
Method: (ii) Experimental Measurement of the Activity of Receptor Antagonism Using Cells Expressing Prostanoid Receptor Subtype EP1 in the Presence of BSA (Bovine Serum Albumin)
The cells expressing mouse EP1 receptor were seeded at 1×10^4 cells/well in 96 well plates and cultured for 2 days with 10% FBS (fetal bovine serum)/minimum essential medium Eagle alpha modification (αMEM) in the incubator (37° C., 5% CO2). The cells in each well were rinsed with phosphate buffer (PBS(−)), and load buffer was added. After incubation for 1 hour, the load buffer was discarded. After the addition of the assay buffer to each well, the cells were incubated in a dark place at room temperature for 1 hour. After the addition of a compound of the present invention (10 μl) and PGE2 (10 μl) which were prepared with assay buffer, intracellular calcium concentration was measured with Fluorescence drug screening system (FDSS-4000, Hamamatsu Photonics). A pair of fluorescence intensities emitted 500 nm by an excitation wavelength of each 340 nm and 380 nm was measured.
The EP1 antagonist activity was estimated as percent inhibition of the increase of intracellular calcium concentration induced by PGE2 (100 nM).
Load buffer: 10% FBS/αMEM containing 5 μM of Fura 2/AM, 20 μM of indomethacin, 2.5 mM of probenecid
Assay buffer: Hank's balanced salt solution (HBSS) containing 1% (w/v) BSA, 2 μM of indomethacin, 2.5 mM of probenecid and 10 mM of HEPES-NaOH

[2] = system: EP1 receptor; assay: Inhibition of sulprostone-induced increase of intravesical pressure of bladder in rats; format: in vivo, rat; conditions: female Wistar rats, 1 mg/kg intraduodenal, 40 minutes after administration
Source text: (iii) Experiment to Assess the Inhibition of Sulprostone-Induced Increase of Intravesical Pressure of Bladder in Rats.
Female rats (Wistar) were anesthetized by urethane and their both ureters were ligated and cut off at the kidney side. The urinary bladder was incised its top and catheter was inserted. The other end of catheter was connected to the pressure transducer and the infusion pump. Repeated micturition reflex, which was induced by the continuous infusion of citrate buffer (pH 3.5) into the bladder, was recorded. The increase of micturition pressure was elicited by the subcutaneous injection of diclofenac (5 mg/kg) and sulprostone (300 μg/kg). Since such an increasing effect was not observed by the treatment of EP3 agonist, it was considered that this increase was caused by the activation of EP1 receptor. The inhibitory effects of the compound of the present invention on this increase of intravesical pressure were measured for 60 minutes after the intraduodenal administration (2 ml/kg).

[3] = molecular target: T1, mouse EP1; assay: Binding assay using expression cell of prostanoid receptor subtype (3H-PGE2 competition, membrane fraction); design: expressed in transfected cells; host or cells: CHO cells, membrane fraction; conditions: competition of 3H-PGE2 (2.5 nM) binding, CHO cell membrane fraction
Method: (i) Binding Assay Using Expression Cell of Prostanoid Receptor Subtype
The preparation of membrane fraction was carried out according to the method of Sugimoto et al. (J. Biol. Chem., 267, 6463-6466 (1992)), using expression CHO cell of prostanoid receptor subtype (mouse EP1, EP2, EP3α or EP4).
The standard assay mixture containing membrane fraction (0.5 mg/ml) and ^3H-PGE2 in a final volume of 200 μl was incubated for 1 hour at room temperature. The reaction was terminated by addition of ice-cold buffer (3 ml). The mixture was rapidly filtered through a glass filter (GF/B). The radioactivity associated with the filter was measured by liquid scintillation counting.
Kd and Bmax values were determined from Scatchard plots (Ann. N.Y. Acad. Sci., 51, 660 (1949)). Non-specific binding was calculated as the binding in the presence of an excess (2.5 μM) of unlabeled PGE2. In the experiment for competition of specific ^3H-PGE2 binding by the compound of the present invention, ^3H-PGE2 (2.5 nM) and the compound of the present invention were added. The following buffer was used in all reaction.
Buffer: potassium phosphate (pH 6.0, 10 mM), EDTA (1 mM), MgCl2 (10 mM) and NaCl (0.1 M).
The dissociation constant Ki (μM) of each compound was calculated by the following equation. Ki=IC50/(1+([C]/Kd))
wherein [C] is concentration of ^3H-PGE2 used in the reaction

[4] = Stability measured on HPLC (Comparison Example 1); format: physicochemical; conditions: for Stability (in words): comment on Table 4
Method: A Comparison of the Stability of 4-methyl-2-thiazolylsulfonyl chloride with that of the Compound Prepared in Examples 8 and 9
The solution prepared in Reference Example 1 was concentrated under reduced pressure to give 4-methyl-2-thiazolylsulfonyl chloride. The stability of this compound and the compounds prepared in Examples 8 and 9 was measured on HPLC. The conditions of HPLC were as follows.
Column: YMC-Pack ODS-AM-302(4.6 mm*150 mm)
Eluting solvent: MeCN/3 mM tetra-n-butylammonium phosphate=40/60

| IC50 [1] | Ki [3] | SMILES | further results |
| --- | --- | --- | --- |
| 7.8 nM | 4.2 nM | Cc1ccc(S(=O)(=O)N(CC(C)C)c2cc(C)c(C)cc2OCc2ccc(C(=O)O)cc2C)o1 [Example 2, 3-methyl-4-[2-[N-isobutyl-N-(5-methyl-2-furylsulfonyl)amino]-4,5-dimethylphenoxymethyl]benzoic acid] | Inhibition (%) (40 minutes later) [2]: 68 ± 1% |
| 260 nM | 1 nM | CC(C)CN(c1ccc(Cl)cc1OCc1ccc(C(=O)O)cc1)S(=O)(=O)c1ccco1 [Example 18 (121), reference compound] | – |
| 470 nM | 5.5 nM | Cc1ccc(OCc2ccc(C(=O)O)cc2)c(N(CC(C)C)S(=O)(=O)c2ccco2)c1 [Example 18 (113), reference compound] | – |
| 21 nM | 7.9 nM | Cc1ccc(S(=O)(=O)N(CC(C)C)c2cc3c(cc2OCc2ccc(/C=C/C(=O)O)cc2)CCC3)o1 [Example 2 (32), 4-[6-[N-isobutyl-N-(5-methyl-2-furylsulfonyl)amino]indan-5-yloxymethyl]cinnamic acid] | – |
| 200 nM | 0.8 nM | Cc1ccc(N(CC(C)C)S(=O)(=O)c2ccco2)c(OCc2ccc(C(=O)O)cc2)c1 [Example 18 (93), reference compound] | – |
| 1340 nM | 1.3 nM | CC(C)CN(c1cc(Cl)ccc1OCc1ccc(C(=O)O)cc1)S(=O)(=O)c1ccco1 [Example 18 (125), reference compound] | – |
| 7.2 nM | 0.32 nM | Cc1ccc(S(=O)(=O)N(CC(C)C)c2cc(C)c(C)cc2OCc2ccc(C(=O)O)cc2)o1 [Example 2 (6), 4-[2-[N-isobutyl-N-(5-methyl-2-furylsulfonyl)amino]-4,5-dimethylphenoxymethyl]benzoic acid] | – |

The next lines start with the compound.

| SMILES | IC50 [1] | Ki [3] | further results |
| --- | --- | --- | --- |
| Cc1cc(OCc2ccc(-c3nnn[nH]3)cc2Cl)c(N(C(C)C)S(=O)(=O)c2cccnc2)cc1C [Example 3 (30), N-[4,5-dimethyl-2-[2-chloro-4-(5-tetrazolyl)phenylmethyloxy]phenyl]-N-isopropyl-3-pyridylsulfonylamide] | 3.7 nM | 0.8 nM | – |
| Cc1csc(S(=O)(=O)n2cc[n+](C)c2)n1 [Example 9, 1-(4-methylthiazol-2-ylsulfonyl)-3-methylimidazol-1-onium hydrogen chloride salt] | – | – | Residual Rate (%) ([4]; 40 °C, 24 hour): 99.6%; Stability (in words) [4]: stable even at high temperature |
| Cc1csc(S(=O)(=O)N(c2cc(C)c(Cl)cc2OCc2ccc(-c3nnn[nH]3)cc2C)C(C)C)n1 [Example 3 (11), N-[4-chloro-5-methyl-2-[2-methyl-4-(5-tetrazolyl)phenylmethyloxy]phenyl]-N-isopropyl-(4-methyl-2-thiazolyl)sulfonylamide] | 4.9 nM | 2.3 nM | – |
| Cc1csc(S(=O)(=O)N(CC(C)C)c2ccc(C(F)(F)F)cc2OCc2ccc(/C=C/C(=O)O)cc2)n1 [Example 2 (41), 4-[2-[N-isobutyl-N-(4-methyl-2-thiazolylsulfonyl)amino]-5-trifluoromethylphenoxymethyl]cinnamic acid] | 25 nM | 1.5 nM | – |
| Cc1cc(OCc2ccc(C(=O)O)cc2C)c(N(CC(C)C)S(=O)(=O)c2ccccn2)cc1C [Example 2 (87), 3-methyl-4-[2-[N-isobutyl-N-(2-pyridylsulfonyl)amino]-4,5-dimethylphenoxymethyl]benzoic acid] | 7.3 nM | 1.4 nM | – |
| Cc1csc(S(=O)(=O)On2nnc3ccccc32)n1 [Example 8, 1-(4-methylthiazol-2-ylsulfonyloxy)-1,2,3-benzotriazole] | – | – | Residual Rate (%) ([4]; 40 °C, 24 hour): 99.8%; Stability (in words) [4]: stable even at high temperature |
| Cc1csc(S(=O)(=O)Cl)n1 [4-methyl-2-thiazolylsulfonyl chloride, 4-methyl-2-thiazolylsulfonylchloride] | – | – | Residual Rate (%) ([4]; 1 °C, 24 hour): 102.0%; Residual Rate (%) ([4]; 1 °C, 48 hour): 96.3%; Residual Rate (%) ([4]; 1 °C, 72 hour): 98.6%; Residual Rate (%) ([4]; 20 °C, 24 hour): 71.4%; Residual Rate (%) ([4]; 20 °C, 48 hour): 20.6%; Residual Rate (%) ([4]; 20 °C, 66 hour): 2.0%; Residual Rate (%) ([4]; 40 °C, 16 hour): 60.9%; Residual Rate (%) ([4]; 40 °C, 24 hour): 7.6%; Stability (in words) [4]: stable at low temperature, but when subjected to room temperature or higher, it is hard to assure the stability |
| Cc1ccc(S(=O)(=O)N(CC(C)C)c2cc3c(cc2OCc2ccc(C(=O)O)cc2C)CCC3)o1 [Example 2 (33), 3-methyl-4-[6-[N-isobutyl-N-(5-methyl-2-furylsulfonyl)amino]indan-5-yloxymethyl]benzoic acid] | 4.1 nM | 6.6 nM | Inhibition (%) (40 minutes later) [2]: 79 ± 11% |
| Cc1cc(OCc2ccc(/C=C/C(=O)O)cc2C)c(N(CC(C)C)S(=O)(=O)c2cccnc2)cc1C [Example 2 (94), 3-methyl-4-[2-[N-isobutyl-N-(3-pyridylsulfonyl)amino]-4,5-dimethylphenoxymethyl]cinnamic acid] | 9.2 nM | 3.9 nM | – |
| Cc1csc(S(=O)(=O)N(c2cc(C)c(C)cc2OCc2ccc(-c3noc(=O)[nH]3)cc2)C(C)C)n1 [Example 4 (14), N-[4,5-dimethyl-2-[4-(5-oxo-1,2,4-oxadiazol-3-yl)phenylmethyloxy]phenyl]-N-isopropyl-(4-methyl-2-thiazolyl)sulfonylamide] | 7.1 nM | 0.8 nM | – |
